# Laboratory results from US20240101538A1, “PROTEIN-PROTEIN INTERACTION MODULATORS OF AURORA KINASE A AND THEIR USE IN THE PREVENTION AND/OR TREATMENT OF CANCER” (EBERHARD KARLS UNIVERSITÄT TÜBINGEN, priority 2020, published 2024).
# Tests used:
# [1] = target: interaction of AURKA with TPX2 (Homo sapiens (Human), UniProt O14965); test: Co-immunoprecipitation of FLAG-AURKA and western blot for TPX2; assay type: cell-based, murine; settings: Co-IP with anti-FLAG, NMP53^−/− cells synchronized with nocodazole
# Chain of interaction of AURKA with TPX2 (O14965 whole entry, looked up): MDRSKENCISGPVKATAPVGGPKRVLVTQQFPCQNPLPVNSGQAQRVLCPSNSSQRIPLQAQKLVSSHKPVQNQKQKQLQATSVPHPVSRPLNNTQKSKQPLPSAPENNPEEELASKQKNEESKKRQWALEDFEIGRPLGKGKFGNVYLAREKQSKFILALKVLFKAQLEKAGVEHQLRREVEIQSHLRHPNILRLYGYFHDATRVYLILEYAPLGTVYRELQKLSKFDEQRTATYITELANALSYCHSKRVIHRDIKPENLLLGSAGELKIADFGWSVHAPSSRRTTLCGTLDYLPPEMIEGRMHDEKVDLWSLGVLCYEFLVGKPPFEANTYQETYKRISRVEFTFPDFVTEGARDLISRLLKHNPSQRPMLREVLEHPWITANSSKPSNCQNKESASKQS
# Chain of interaction of AURKA with TPX2 (A2APB8 whole entry partner, looked up): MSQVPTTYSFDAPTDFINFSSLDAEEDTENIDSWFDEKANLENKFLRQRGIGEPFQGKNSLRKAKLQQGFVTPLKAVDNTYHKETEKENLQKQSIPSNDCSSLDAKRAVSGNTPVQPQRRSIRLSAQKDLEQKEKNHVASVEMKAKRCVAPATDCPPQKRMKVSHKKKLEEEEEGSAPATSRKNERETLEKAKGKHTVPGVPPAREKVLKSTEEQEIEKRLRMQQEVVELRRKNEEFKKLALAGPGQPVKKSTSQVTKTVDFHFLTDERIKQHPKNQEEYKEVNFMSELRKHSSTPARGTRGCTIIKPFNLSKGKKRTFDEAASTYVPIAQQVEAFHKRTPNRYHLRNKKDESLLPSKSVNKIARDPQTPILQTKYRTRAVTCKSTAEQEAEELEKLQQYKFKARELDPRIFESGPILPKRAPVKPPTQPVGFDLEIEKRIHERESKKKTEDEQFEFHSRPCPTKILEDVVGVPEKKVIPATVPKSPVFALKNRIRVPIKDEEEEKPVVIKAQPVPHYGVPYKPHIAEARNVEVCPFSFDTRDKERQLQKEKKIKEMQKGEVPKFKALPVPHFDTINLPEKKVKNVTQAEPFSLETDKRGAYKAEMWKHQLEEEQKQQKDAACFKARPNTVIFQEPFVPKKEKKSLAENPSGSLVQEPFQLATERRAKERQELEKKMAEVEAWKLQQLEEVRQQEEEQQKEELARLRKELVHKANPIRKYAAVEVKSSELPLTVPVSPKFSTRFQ
# Experimental: Tumor cells (NMP53^−/− cells) expressing a doxycycline-inducible FLAG-AURKA construct were kept on doxycycline for 24 hours, synchronized with 50 ng/ml nocodazole for 6 hours and treated with two of the developed compounds or DMSO as a control. In particular, the top “AURKA-Ligand” refers to compound 3a [N-(2-fluoro-5-((4-(1-methyl-1H-pyrazole-4-yl)benzyl)amino)phenyl)-3-(furan-2-yl),propanamide], and the bottom “AURKA-Ligand” refers to compound 2c [N-(5-((4-(1H-pyrazole-4-yl)benzyl)amino)-2-fluorophenyl)-3-(furan-2-yl)propanamide]. Co-immunoprecipitations (Co-IP) were carried out with an antibody against FLAG. A DMSO-treated sample without FLAG-AURKA induction served as a control. The AURKA and TPX2 levels of the Co-IP samples and their input were determined by western blotting.
# Tumor cells (NMP53/cells) expressing a doxycycline-inducible FLAG-AURKA construct were kept on doxycycline for 24 hours, synchronized with 50 ng/ml nocodazole for 6 hours and treated with two of the developed compounds of this invention (3a and 2c), or DMSO as a control. Then, co-immunoprecipitations (Co-IP) were carried out with an antibody against FLAG. A DMSO-treated sample without FLAG-AURKA induction served as a control. The AURKA and TPX2 levels of the Co-IP samples and their input were determined by western blotting.
# MYC-AURKA interaction = MYC-AURKA interaction (Mus musculus (Mouse), UniProt P97477); test: Proximity ligation assay (PLA) for MYC and AURKA in NMP53^−/− cells; assay type: cell-based, murine; settings: 2 h after treatment
# Chain of MYC-AURKA interaction (P97477 whole entry): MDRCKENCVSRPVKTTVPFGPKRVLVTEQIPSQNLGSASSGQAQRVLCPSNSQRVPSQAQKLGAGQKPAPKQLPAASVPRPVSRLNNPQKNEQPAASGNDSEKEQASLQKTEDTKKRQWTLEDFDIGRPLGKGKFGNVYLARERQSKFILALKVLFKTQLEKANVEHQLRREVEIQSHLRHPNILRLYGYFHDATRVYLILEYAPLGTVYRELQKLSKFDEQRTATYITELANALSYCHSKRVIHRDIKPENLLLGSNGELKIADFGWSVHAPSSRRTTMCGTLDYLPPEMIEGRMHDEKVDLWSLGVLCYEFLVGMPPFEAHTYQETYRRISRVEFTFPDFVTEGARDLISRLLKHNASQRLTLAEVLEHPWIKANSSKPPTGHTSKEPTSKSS
# Experimental: To examine whether this MYC degradation is associated with MYC-AURKA PPI disruption, the inventors performed proximity ligation assays (PLA) in NMP53^−/− cells. For Proximity Ligation Assay (PLA), 50 000 cells were seeded on 12 mm glass slides placed in 6 well plates. On the next day, the cells were treated with the indicated compounds or the corresponding DMSO concentration for 2 h (compound 2c [N-(5-((4-(1H-pyrazole-4-yl)benzyl)amino)-2-fluorophenyl)-3-(furan-2-yl)propanamide] and compound 3a [N-(2-fluoro-5-((4-(1-methyl-1H-pyrazole-4-yl)benzyl)amino)phenyl)-3-(furan-2-yl)propanamide]) or 24 h (alisertib) and fixed for 10 min in 100% MeOH at −20° C. The glass slides were removed from the 6 well plates and the cells permeabilized with TBS+0.3% Triton X-100 for 5 min. After washing with PBS and blocking with 5% BSA in TBS+0.05% Tween for 30 min, the slides were incubated with MYC (Abeam ab32072, 1:200) and AURKA (Abcam ab13824, 1:200) specific antibodies in 1% BSA in TBS+0.05% Tween for 120 min at RT and washed 3 times with PBS for 5 min, wherein the MYC/TPX2 and AURKA specific antibodies are derived from a different species. After a 20 min pre-incubation of two PLA probes, directed against either species of the MYC/TPX2 and AURKA specific antibodies, at RT (DUO92001 and DUO92005 Sigma Aldrich, diluted 1:10 in 1% BSA in TBS+0.05% Tween), the slides were incubated with the probes for 60 min at 37° C. in a humidified chamber. The slides were washed 3 times with 1× wash buffer A (Sigma Aldrich DUO82049) for 5 min and incubated with the ligase solution (ligase diluted 1:40 in 5× ligase buffer and ddH2O, Sigma Aldrich DUO92008) for 60 min at 37° C. in a humidified chamber. […] The foci per cell were counted in a way that the cytoplasmic foci are counted to the cell with the closest nucleus (DAPI). Significance was calculated with the GraphPad Prism 8.4.0 software (GraphPad Software, La Jolla, CA) by using the nonparametric Mann Whitney test.
# 320 wildtype kinases = test: Kinome screen with 320 wildtype kinases; assay type: biochemical
interaction of AURKA with TPX2 [1],reduction of the MYC-AURKA interaction compared to DMSO (MYC-AURKA interaction),SMILES,off-targets in kinome screen (320 wildtype kinases; 100 nM),selectivity score (320 wildtype kinases; 500 nM),inhibition in kinome screen (320 wildtype kinases; 320 wildtype kinases)
largely enhance,66.7%,"O=C(CCc1ccco1)Nc1cc(NCc2ccc(-c3cn[nH]c3)cc2)ccc1F [Compound 2c, N-(5-((4-(1H-pyrazole-4-yl)benzyl)amino)-2-fluorophenyl)-3-(furan-2-yl)propanamide]",no off-targets,0.019,–
largely enhance,50%,"Cn1cc(-c2ccc(CNc3ccc(F)c(NC(=O)CCc4ccco4)c3)cc2)cn1 [Compound 3a, N-(2-fluoro-5-((4-(1-methyl-1H-pyrazole-4-yl)benzyl)amino)phenyl)-3-(furan-2-yl)propanamide]",–,–,overall no inhibition
